17 compounds from PubChem BioAssay AID256 (DTP/NCI, 2004) can be followed below.

For this test, the system named is CD2F1 mice, L1210 leukemia ip, survival T/C. In words: NCI In Vivo Anticancer Drug Screen. Data for tumor model L1210 Leukemia (intraperitoneal) in CD2F1 (CDF1) mice. The conditions noted are these: higher = longer survival. In a few lines: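 Activity against a transplanted murine tumor was judged by comparing the compound group with a vehicle group. The outcome in the treated animals was divided by that in the controls.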

Where [1] appears, read: endpoint: mean survival time, dose: 100.0 mg/kg/injection, schedule: Q04DX002 (ip), vehicle: saline with Tween-80.
Where [2] appears, read: endpoint: mean survival time, dose: 200.0 mg/kg/injection, schedule: Q04DX002 (ip), vehicle: saline with Tween-80.
[3] abbreviates: endpoint: mean survival time, dose: 100.0 mg/kg/injection, schedule: Q01DX009 (ip), vehicle: saline with Tween-80.
Where [4] appears, read: endpoint: mean survival time, dose: 400.0 mg/kg/injection, schedule: Q01DX009 (ip), vehicle: saline with Tween-80.
The mark [5] stands for this setting: endpoint: mean survival time, dose: 100.0 mg/kg/injection, schedule: Q04DX003 (ip), vehicle: saline with Tween-80.
Setting [6] is: endpoint: mean survival time, dose: 200.0 mg/kg/injection, schedule: Q04DX003 (ip), vehicle: saline with Tween-80.
[7] abbreviates: endpoint: mean survival time, dose: 400.0 mg/kg/injection, schedule: Q04DX003 (ip), vehicle: saline with Tween-80.

Where “and” joins values, the source holds several entries; their conditions need not be identical. Identical values can stand only once. Toxic doses and inconclusive results are not listed.

Consider `NC(=S)N/N=C/c1ncccc1O`, for which the T/C was 117 % of control (endpoint: mean survival time, dose: 3.13 mg/kg/injection, schedule: Q03HX024 (ip), vehicle: saline); 102 % of control (endpoint: mean survival time, dose: 50.0 mg/kg/injection, schedule: Q03HX024 (ip), vehicle: saline); 156 % of control (endpoint: median survival time, dose: 21.8 mg/kg/injection, schedule: Q03HX008 (ip), vehicle: suspension in saline); 164 % of control (endpoint: median survival time, dose: 32.5 mg/kg/injection, schedule: Q03HX008 (ip), vehicle: suspension in saline); 121 % of control (endpoint: median survival time, dose: 45.0 mg/kg/injection, schedule: Q04DX003 (ip), vehicle: suspension in saline); 174 % of control (endpoint: median survival time, dose: 48.5 mg/kg/injection, schedule: Q03HX008 (ip), vehicle: suspension in saline). Further, the T/C by setting is: (endpoint: median survival time, dose: 50.0 mg/kg/injection, schedule: Q01DX005 (ip), vehicle: saline) 156 % of control; (endpoint: median survival time, dose: 72.4 mg/kg/injection, schedule: Q03HX008 (ip), vehicle: suspension in saline) 109 % of control; (endpoint: median survival time, dose: 90.0 mg/kg/injection, schedule: Q04DX003 (ip), vehicle: suspension in saline) 122 % of control; (endpoint: median survival time, dose: 100.0 mg/kg/injection, schedule: Q01DX005 (ip), vehicle: suspension in saline) 150 % of control; (endpoint: median survival time, dose: 108.0 mg/kg/injection, schedule: Q04DX003 (ip), vehicle: suspension in saline) 152 % of control; (endpoint: median survival time, dose: 180.0 mg/kg/injection, schedule: Q03HX024 (ip), vehicle: saline) 86 % of control. Moreover, the T/C runs as follows: (endpoint: median survival time, dose: 200.0 mg/kg/injection, schedule: Q01DX005 (ip), vehicle: suspension in saline) 117 % of control; (endpoint: median survival time, dose: 241.0 mg/kg/injection, schedule: Q04DX003 (ip), vehicle: suspension in saline) 151 % of control; (endpoint: median survival time, dose: 360.0 mg/kg/injection, schedule: Q04DX003 (ip), vehicle: suspension in saline) 161 % of control; (endpoint: median survival time, dose: 537.0 mg/kg/injection, schedule: Q04DX003 (ip), vehicle: suspension in saline) 109 % of control; (endpoint: median survival time, dose: 720.0 mg/kg/injection, schedule: Q04DX003 (ip), vehicle: suspension in saline) 119 % of control.

Regarding `O=C(CC(=O)c1ccc(Cl)cc1)Cc1ccc2ccccc2n1`, the T/C is 97 % of control under setting [1]; 97 % of control under setting [2]; 97 % of control (endpoint: mean survival time, dose: 400.0 mg/kg/injection, schedule: Q04DX002 (ip), vehicle: saline with Tween-80).

As for `Cc1ccccc1S(=O)(=O)N/N=C/c1ccsc1`, the T/C reads like this: (endpoint: median survival time, dose: 50.0 mg/kg/injection, schedule: Q04DX002 (ip), vehicle: saline with Tween-80) 90 % of control; (endpoint: median survival time, dose: 100.0 mg/kg/injection, schedule: Q04DX002 (ip), vehicle: saline with Tween-80) 90 % of control; (endpoint: median survival time, dose: 200.0 mg/kg/injection, schedule: Q04DX002 (ip), vehicle: saline with Tween-80) 100 % of control; (endpoint: median survival time, dose: 400.0 mg/kg/injection, schedule: Q04DX002 (ip), vehicle: saline with Tween-80) 90 % of control.

As to `NC(N)=NCCc1ccccc1`, the T/C (endpoint: mean survival time, dose: 5.0 mg/kg/injection, schedule: Q01DX009 (ip), vehicle: saline) was 102 % of control; the T/C (endpoint: mean survival time, dose: 5.0 mg/kg/injection, schedule: Q04DX003 (ip), vehicle: saline) is 92 % of control; the T/C (endpoint: mean survival time, dose: 10.0 mg/kg/injection, schedule: Q01DX009 (ip), vehicle: saline) is 103 % of control; the T/C (endpoint: mean survival time, dose: 10.0 mg/kg/injection, schedule: Q04DX003 (ip), vehicle: saline) was 102 % of control; the T/C (endpoint: mean survival time, dose: 20.0 mg/kg/injection, schedule: Q01DX009 (ip), vehicle: saline) was 96 % of control; the T/C (endpoint: mean survival time, dose: 20.0 mg/kg/injection, schedule: Q04DX003 (ip), vehicle: saline) was 97 % of control.

Take `O=C1c2ccccc2C(=O)c2cc(S(=O)(=O)O)ccc21`: the T/C runs as follows: (endpoint: mean survival time, dose: 100.0 mg/kg/injection, schedule: Q01DX001 (ip), vehicle: Klucel (hydroxypropylcellulose) (HPC)) 104 % of control; under setting [3], 98 % of control; (endpoint: mean survival time, dose: 200.0 mg/kg/injection, schedule: Q01DX001 (ip), vehicle: Klucel (hydroxypropylcellulose) (HPC)) 96 % of control; (endpoint: mean survival time, dose: 200.0 mg/kg/injection, schedule: Q01DX009 (ip), vehicle: saline with Tween-80) 90 % of control; (endpoint: mean survival time, dose: 400.0 mg/kg/injection, schedule: Q01DX001 (ip), vehicle: Klucel (hydroxypropylcellulose) (HPC)) 104 % of control; under setting [4], 90 % of control.

As for `O=[As](O)(O)c1cccc2ccccc12`, the T/C (endpoint: mean survival time, dose: 1.25 mg/kg/injection, schedule: Q01DX009 (ip), vehicle: saline) is 90 % of control and the T/C (endpoint: mean survival time, dose: 2.5 mg/kg/injection, schedule: Q01DX009 (ip), vehicle: saline) was 111 % of control.

Take `CNC(C)C(O)c1ccc(O)cc1` (configuration not stated): the T/C was 112 % of control (endpoint: mean survival time, dose: 50.0 mg/kg/injection, schedule: Q01DX001 (ip), vehicle: carboxymethylcellulose (CMC)); 108 % of control (endpoint: mean survival time, dose: 100.0 mg/kg/injection, schedule: Q01DX001 (ip), vehicle: carboxymethylcellulose (CMC)); 108 % of control (endpoint: mean survival time, dose: 200.0 mg/kg/injection, schedule: Q01DX001 (ip), vehicle: carboxymethylcellulose (CMC)); 104 % of control (endpoint: mean survival time, dose: 400.0 mg/kg/injection, schedule: Q01DX001 (ip), vehicle: carboxymethylcellulose (CMC)).

Turning to `Cc1[nH]c2cc([N+](=O)[O-])ccc2c1[N+](=O)[O-]`, the T/C was 97 % of control and 108 % of control (endpoint: mean survival time, dose: 75.0 mg/kg/injection, schedule: Q01DX001 (ip), vehicle: saline); 103 % of control and 100 % of control (endpoint: mean survival time, dose: 150.0 mg/kg/injection, schedule: Q01DX001 (ip), vehicle: saline); 93 % of control (endpoint: mean survival time, dose: 300.0 mg/kg/injection, schedule: Q01DX001 (ip), vehicle: saline).

Consider `CCOC(CC)C(O)(c1ccc(N(C)C)cc1)c1ccc(N(C)C)cc1` (configuration not stated), for which the T/C runs as follows: under setting [5], 97 % of control; under setting [6], 102 % of control; under setting [7], 94 % of control.

As to `CCOC(=O)Nc1cc([N+](C)(C)C)ccc1OCCOc1ccc([N+](C)(C)C)cc1`, the T/C (endpoint: mean survival time, dose: 0.15 mg/kg/injection, schedule: Q04DX003 (ip), vehicle: Klucel (hydroxypropylcellulose) (HPC)) was 100 % of control; the T/C (endpoint: mean survival time, dose: 0.3 mg/kg/injection, schedule: Q04DX003 (ip), vehicle: Klucel (hydroxypropylcellulose) (HPC)) is 90 % of control; the T/C (endpoint: mean survival time, dose: 0.6 mg/kg/injection, schedule: Q04DX003 (ip), vehicle: Klucel (hydroxypropylcellulose) (HPC)) was 100 % of control.

`NS(=O)(=O)c1ccc(NC(=O)Oc2ccc([N+](=O)[O-])cc2)cc1`: the T/C (endpoint: mean survival time, dose: 100.0 mg/kg/injection, schedule: Q01DX001 (ip), vehicle: saline with Tween-80) is 93 % of control; the T/C (endpoint: mean survival time, dose: 200.0 mg/kg/injection, schedule: Q01DX001 (ip), vehicle: saline with Tween-80) is 93 % of control; the T/C (endpoint: mean survival time, dose: 400.0 mg/kg/injection, schedule: Q01DX001 (ip), vehicle: saline with Tween-80) is 101 % of control.

As to `C/C=C/CNc1ccc(C)cc1`, the T/C was 98 % of control (endpoint: mean survival time, dose: 66.0 mg/kg/injection, schedule: Q01DX009 (ip), vehicle: saline with Tween-80); 100 % of control under setting [3]; 103 % of control under setting [5]; 102 % of control (endpoint: mean survival time, dose: 150.0 mg/kg/injection, schedule: Q01DX009 (ip), vehicle: saline with Tween-80).

Turning to `CCC(c1ccc(O)c(CN(CC)CC)c1)C(CC)c1ccc(O)c(CN(CC)CC)c1` (configuration not stated), the T/C under setting [1] is 92 % of control and the T/C under setting [2] is 92 % of control.

With `CCCCOC(=O)c1n[nH]c(C)c1N=NN1CCOCC1`, the T/C reads like this: (endpoint: mean survival time, dose: 75.0 mg/kg/injection, schedule: Q01DX001 (ip), vehicle: other) 105 % of control; (endpoint: mean survival time, dose: 150.0 mg/kg/injection, schedule: Q01DX001 (ip), vehicle: other) 97 % of control; (endpoint: mean survival time, dose: 300.0 mg/kg/injection, schedule: Q01DX001 (ip), vehicle: other) 103 % of control.

For `CCCCCCCCCCCC[N+]1(C)CCOCC1`, the T/C was 102 % of control (endpoint: mean survival time, dose: 12.5 mg/kg/injection, schedule: Q01DX009 (ip), vehicle: Klucel (hydroxypropylcellulose) (HPC)); 98 % of control (endpoint: mean survival time, dose: 25.0 mg/kg/injection, schedule: Q01DX009 (ip), vehicle: Klucel (hydroxypropylcellulose) (HPC)); 98 % of control (endpoint: mean survival time, dose: 50.0 mg/kg/injection, schedule: Q01DX009 (ip), vehicle: Klucel (hydroxypropylcellulose) (HPC)).

Take `COC1=CC(=O)C(C2CC(=O)c3c(O)cc(O)cc3O2)=CC1=O` (configuration not stated): the T/C by setting is: under setting [3], 101 % of control; under setting [5], 100 % of control; under setting [6], 100 % of control; under setting [7], 98 % of control.

Regarding `O=C([O-])[O-].O=[N+]([O-])O.[Co+3].[NH2-].[NH2-].[NH2-].[NH2-]`, the T/C by setting is: under setting [4], 93 % of control; under setting [7], 94 % of control.
